Measurements: the NIST ThermoML archive (doi:10.1016/j.fluid.2011.08.018)

Test: mean ionic activity coefficient (dimensionless); mn = molality of the nth substance listed, in mol/kg
Conditions: 298.15 K, 101 kPa, Liquid, EMF measurements

[Cl-].[Na+] [sodium chloride] + CNC=O
Conditions	mean ionic activity coefficient
m1 = 0.0396	0.986
m1 = 0.052	0.985
m1 = 0.0642	0.983
m1 = 0.102	0.984
m1 = 0.1375	0.984
m1 = 0.1655	0.978
m1 = 0.1934	0.971

[Cl-].[Na+] [sodium chloride] + O
Conditions	mean ionic activity coefficient
m1 = 0.0496	0.819
m1 = 0.1857	0.733
m1 = 0.1979	0.733
m1 = 0.3096	0.707
m1 = 0.3711	0.689
m1 = 0.4571	0.686
m1 = 0.5916	0.675
m1 = 0.6871	0.659
m1 = 0.8318	0.663
m1 = 1.139	0.651
m1 = 1.212	0.659
m1 = 1.77	0.657
m1 = 1.87	0.67
m1 = 2.394	0.68
m1 = 2.624	0.702
m1 = 3.587	0.75
m1 = 3.811	0.78
m1 = 4.654	0.83
m1 = 5.142	0.891
m1 = 5.443	0.921
m1 = 5.693	0.929
m1 = 5.891	0.97
m1 = 6.032	0.985
m1 = 6.085	0.976
m1 = 6.1	0.997
